Common to all, as to assay: relative viability (nuclei count vs DMSO), 5 days (fraction); higher = more cells survive
Compound in the assay “Dinaciclib + Palbociclib”: CCc1cnn2c(NCc3ccc[n+]([O-])c3)cc(N3CCCC[C@H]3CCO)nc12 [Dinaciclib] + CC(=O)c1c(C)c2cnc(Nc3ccc(N4CCNCC4)cn3)nc2n(C2CCCC2)c1=O [Palbociclib] (partner 0.5 µM)
The essentials: (§1)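 One day after seeding in 1536-well plates, lung cancer cell lines were dosed by pin tool. Dosing was either single-drug or a fixed anchor-drug dose plus five library-drug doses (not always all listed) in √10 steps. After 5 days, nuclei were stained in one fix-and-stain step and counted on 4× images, and relative viability is the nuclei count of treated wells over that of vehicle wells, given as the median of duplicate plates.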

Compound in the assay “Dinaciclib + Luminespib”: CCc1cnn2c(NCc3ccc[n+]([O-])c3)cc(N3CCCC[C@H]3CCO)nc12 [Dinaciclib] + CCNC(=O)c1noc(-c2cc(C(C)C)c(O)cc2O)c1-c1ccc(CN2CCOCC2)cc1 [Luminespib] (partner 0.01 µM)
The method in brief:
as §1

Compound in the assay “Dinaciclib + Linsitinib”: CCc1cnn2c(NCc3ccc[n+]([O-])c3)cc(N3CCCC[C@H]3CCO)nc12 [Dinaciclib] + C[C@]1(O)C[C@@H](c2nc(-c3ccc4ccc(-c5ccccc5)nc4c3)c3c(N)nccn32)C1 [Linsitinib] (partner 1 µM)
The method in brief:
as §1

Compound in the assay “Dinaciclib + AZD7762”: CCc1cnn2c(NCc3ccc[n+]([O-])c3)cc(N3CCCC[C@H]3CCO)nc12 [Dinaciclib] + NC(=O)Nc1cc(-c2cccc(F)c2)sc1C(=O)N[C@H]1CCCNC1 [AZD7762] (partner 0.2 µM)
The method in brief: as §1

Compound in the assay “Dinaciclib + Olaparib”: CCc1cnn2c(NCc3ccc[n+]([O-])c3)cc(N3CCCC[C@H]3CCO)nc12 [Dinaciclib] + O=C(c1cc(Cc2n[nH]c(=O)c3ccccc23)ccc1F)N1CCN(C(=O)C2CC2)CC1 [Olaparib] (partner 8 µM)
The essentials: as §1

As to NCI-H2347, the relative viability with Dinaciclib + Palbociclib (first compound 0.009487 µM) is 0.506; in the assay with Dinaciclib + Palbociclib (first compound 0.03 µM), 0.321; in the assay with Dinaciclib + Palbociclib (first compound 0.09487 µM), 0.21; with Dinaciclib + Palbociclib (first compound 0.3 µM), 0.212; with Dinaciclib + Luminespib (first compound 0.009487 µM), 0.249; with Dinaciclib + Luminespib (first compound 0.03 µM), 0.12. Besides, the relative viability with Dinaciclib + Luminespib (first compound 0.09487 µM) worked out at 0.105; in the assay with Dinaciclib + Luminespib (first compound 0.3 µM) it was 0.118; in the assay with Dinaciclib + Linsitinib (first compound 0.009487 µM), 1.03; in the assay with Dinaciclib + Linsitinib (first compound 0.03 µM), 0.355; with Dinaciclib + Linsitinib (first compound 0.09487 µM), 0.273; in the assay with Dinaciclib + Linsitinib (first compound 0.3 µM), 0.266. For the same cell line, the relative viability in the assay with Dinaciclib + AZD7762 (first compound 0.009487 µM) is 0.78; with Dinaciclib + AZD7762 (first compound 0.03 µM), 0.226; with Dinaciclib + AZD7762 (first compound 0.09487 µM), 0.2; with Dinaciclib + AZD7762 (first compound 0.3 µM), 0.185; in the assay with Dinaciclib + Olaparib (first compound 0.009487 µM) it was 0.523; with Dinaciclib + Olaparib (first compound 0.03 µM), 0.241. The results for the relative viability with Dinaciclib + Olaparib (first compound 0.09487 µM) and with Dinaciclib + Olaparib (first compound 0.3 µM) were 0.216 and 0.209, respectively.
On to NCI-H2405, for which the relative viability in the assay with Dinaciclib + Palbociclib (first compound 0.009487 µM) is 0.542; with Dinaciclib + Palbociclib (first compound 0.03 µM), 0.22; with Dinaciclib + Palbociclib (first compound 0.09487 µM), 0.199; with Dinaciclib + Palbociclib (first compound 0.3 µM), 0.188; with Dinaciclib + Luminespib (first compound 0.009487 µM), 0.688; in the assay with Dinaciclib + Luminespib (first compound 0.03 µM), 0.231. For the same cell line, the relative viability was determined as 0.193 with Dinaciclib + Luminespib (first compound 0.09487 µM); 0.247 with Dinaciclib + Luminespib (first compound 0.3 µM); 0.989 in the assay with Dinaciclib + Linsitinib (first compound 0.009487 µM); 0.25 with Dinaciclib + Linsitinib (first compound 0.03 µM); 0.262 in the assay with Dinaciclib + Linsitinib (first compound 0.09487 µM); 0.235 with Dinaciclib + Linsitinib (first compound 0.3 µM). The relative viability with Dinaciclib + AZD7762 (first compound 0.009487 µM) is 0.539; with Dinaciclib + AZD7762 (first compound 0.03 µM), 0.202; in the assay with Dinaciclib + AZD7762 (first compound 0.09487 µM), 0.193; in the assay with Dinaciclib + AZD7762 (first compound 0.3 µM), 0.196; in the assay with Dinaciclib + Olaparib (first compound 0.009487 µM), 0.654; with Dinaciclib + Olaparib (first compound 0.03 µM) it was 0.242. Moreover, the relative viability with Dinaciclib + Olaparib (first compound 0.09487 µM) turned out to be 0.225; in the assay with Dinaciclib + Olaparib (first compound 0.3 µM) it was 0.23.
With NCI-H3122, the relative viability with Dinaciclib + Palbociclib (first compound 0.009487 µM) was found to be 0.175; in the assay with Dinaciclib + Palbociclib (first compound 0.03 µM), 0.108; with Dinaciclib + Palbociclib (first compound 0.09487 µM), 0.0876; with Dinaciclib + Palbociclib (first compound 0.3 µM), 0.0895; in the assay with Dinaciclib + Luminespib (first compound 0.009487 µM), 0.115; in the assay with Dinaciclib + Luminespib (first compound 0.03 µM), 0.122. Moreover, the relative viability came out at 0.0991 with Dinaciclib + Luminespib (first compound 0.09487 µM); 0.0858 with Dinaciclib + Luminespib (first compound 0.3 µM); 0.932 with Dinaciclib + Linsitinib (first compound 0.009487 µM); 0.147 with Dinaciclib + Linsitinib (first compound 0.03 µM); 0.145 with Dinaciclib + Linsitinib (first compound 0.09487 µM); 0.147 with Dinaciclib + Linsitinib (first compound 0.3 µM). The relative viability with Dinaciclib + AZD7762 (first compound 0.009487 µM) is 1.07; with Dinaciclib + AZD7762 (first compound 0.03 µM), 0.107; with Dinaciclib + AZD7762 (first compound 0.09487 µM) it was 0.0953; in the assay with Dinaciclib + AZD7762 (first compound 0.3 µM) it was 0.0953; with Dinaciclib + Olaparib (first compound 0.009487 µM), 0.579; with Dinaciclib + Olaparib (first compound 0.03 µM) it was 0.0996. The relative viability is 0.0974 with Dinaciclib + Olaparib (first compound 0.09487 µM) and 0.0928 with Dinaciclib + Olaparib (first compound 0.3 µM).
Consider PC-3 [JPC-3], for which the relative viability came to 0.535 with Dinaciclib + Palbociclib (first compound 0.009487 µM); 0.489 with Dinaciclib + Palbociclib (first compound 0.03 µM); 0.365 with Dinaciclib + Palbociclib (first compound 0.09487 µM); 0.29 with Dinaciclib + Palbociclib (first compound 0.3 µM); 0.668 with Dinaciclib + Luminespib (first compound 0.009487 µM); 0.417 with Dinaciclib + Luminespib (first compound 0.03 µM). Moreover, the relative viability with Dinaciclib + Luminespib (first compound 0.09487 µM) amounted to 0.219; with Dinaciclib + Luminespib (first compound 0.3 µM), 0.199; with Dinaciclib + Linsitinib (first compound 0.009487 µM), 0.912; with Dinaciclib + Linsitinib (first compound 0.03 µM), 0.991; with Dinaciclib + Linsitinib (first compound 0.09487 µM) it was 0.537; with Dinaciclib + Linsitinib (first compound 0.3 µM) it was 0.237. Also, the relative viability with Dinaciclib + AZD7762 (first compound 0.009487 µM) is 0.904; with Dinaciclib + AZD7762 (first compound 0.03 µM), 0.476; with Dinaciclib + AZD7762 (first compound 0.09487 µM) it was 0.308; with Dinaciclib + AZD7762 (first compound 0.3 µM), 0.279; with Dinaciclib + Olaparib (first compound 0.009487 µM), 1.09; with Dinaciclib + Olaparib (first compound 0.03 µM) it was 0.57. Further, the values for the relative viability with Dinaciclib + Olaparib (first compound 0.09487 µM) and in the assay with Dinaciclib + Olaparib (first compound 0.3 µM) were 0.321 and 0.288, respectively.
For PC-14, the relative viability with Dinaciclib + Palbociclib (first compound 0.009487 µM) was 0.215; with Dinaciclib + Palbociclib (first compound 0.03 µM) it was 0.0424; in the assay with Dinaciclib + Palbociclib (first compound 0.09487 µM), 0.0361; with Dinaciclib + Palbociclib (first compound 0.3 µM), 0.0423; with Dinaciclib + Luminespib (first compound 0.009487 µM), 0.146; with Dinaciclib + Luminespib (first compound 0.03 µM), 0.0837. For the same cell line, the relative viability with Dinaciclib + Luminespib (first compound 0.09487 µM) was determined as 0.0681; with Dinaciclib + Luminespib (first compound 0.3 µM) it was 0.0507; in the assay with Dinaciclib + Linsitinib (first compound 0.009487 µM) it was 0.873; with Dinaciclib + Linsitinib (first compound 0.03 µM) it was 0.244; with Dinaciclib + Linsitinib (first compound 0.09487 µM), 0.0973; with Dinaciclib + Linsitinib (first compound 0.3 µM), 0.0775. The relative viability in the assay with Dinaciclib + AZD7762 (first compound 0.009487 µM) came to 0.389; with Dinaciclib + AZD7762 (first compound 0.03 µM), 0.0715; with Dinaciclib + AZD7762 (first compound 0.09487 µM) it was 0.0519; with Dinaciclib + AZD7762 (first compound 0.3 µM), 0.0512; with Dinaciclib + Olaparib (first compound 0.009487 µM), 0.143; with Dinaciclib + Olaparib (first compound 0.03 µM), 0.0629. The relative viability with Dinaciclib + Olaparib (first compound 0.09487 µM) stood at 0.0502; with Dinaciclib + Olaparib (first compound 0.3 µM), 0.0532.
Take RERF-LC-KJ: the relative viability worked out at 0.907 with Dinaciclib + Palbociclib (first compound 0.009487 µM); 0.216 with Dinaciclib + Palbociclib (first compound 0.03 µM); 0.139 with Dinaciclib + Palbociclib (first compound 0.09487 µM); 0.157 with Dinaciclib + Palbociclib (first compound 0.3 µM); 0.452 with Dinaciclib + Luminespib (first compound 0.009487 µM); 0.195 with Dinaciclib + Luminespib (first compound 0.03 µM). Further, the relative viability is 0.179 with Dinaciclib + Luminespib (first compound 0.09487 µM); 0.208 in the assay with Dinaciclib + Luminespib (first compound 0.3 µM); 0.924 with Dinaciclib + Linsitinib (first compound 0.009487 µM); 0.193 in the assay with Dinaciclib + Linsitinib (first compound 0.03 µM); 0.147 with Dinaciclib + Linsitinib (first compound 0.09487 µM); 0.099 with Dinaciclib + Linsitinib (first compound 0.3 µM). Moreover, the relative viability in the assay with Dinaciclib + AZD7762 (first compound 0.009487 µM) is 1.04; in the assay with Dinaciclib + AZD7762 (first compound 0.03 µM), 0.498; with Dinaciclib + AZD7762 (first compound 0.09487 µM) it was 0.114; in the assay with Dinaciclib + AZD7762 (first compound 0.3 µM), 0.155; with Dinaciclib + Olaparib (first compound 0.009487 µM) it was 0.466; with Dinaciclib + Olaparib (first compound 0.03 µM), 0.166. In addition, the relative viability in the assay with Dinaciclib + Olaparib (first compound 0.09487 µM) worked out at 0.155; with Dinaciclib + Olaparib (first compound 0.3 µM), 0.154.

Values taken from the supplement of paper PMC10307832.
